Test results taken from patent US20070213282A1, “Peroxisome proliferator-activated receptor (PPAR) activator, and drugs, supplements, functional foods and food additives using the same” (ARKRAY, Inc., priority 2004, published 2007).

Columns and labels:
[1] = biological target: T1, human PPARγ ligand-binding domain (Homo sapiens, UniProt P37231); assay: PPARγ ligand activity, GAL4-hPPARγ luciferase reporter assay in CV-1 cells; assay type: cell-based; conditions: for PPARγ ligand activity: luciferase activity relative to non-treatment control (DMSO) = 100, average ± standard error, n=4
T1 construct: expressed in transfected cells; host or cells: CV-1 cells (African green monkey kidney)
T1 sequence (P37231 204-505): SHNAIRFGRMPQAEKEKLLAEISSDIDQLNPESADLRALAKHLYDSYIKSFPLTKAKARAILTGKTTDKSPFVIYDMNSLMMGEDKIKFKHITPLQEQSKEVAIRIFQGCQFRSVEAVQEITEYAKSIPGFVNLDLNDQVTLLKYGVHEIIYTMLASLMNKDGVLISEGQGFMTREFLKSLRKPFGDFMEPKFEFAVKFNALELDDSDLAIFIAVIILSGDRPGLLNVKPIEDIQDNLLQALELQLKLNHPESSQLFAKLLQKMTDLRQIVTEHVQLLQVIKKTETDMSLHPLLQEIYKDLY
Description: First, CV-1 cells (cultured cells derived from kidneys of male African green monkeys) were inoculated on 24-well culture plates so as to be […] and cultured at 37° C. in 5% CO2 for 24 hours. As a medium, DMEM (Dulbecco's Modified Eagle Medium; available from GIBCO) containing 10% FBS (fetal bovine serum) and a 10 mg/ml penicillin streptomycin solution was used. Next, using the Lipofectamine system (Invitrogen Corporation), pM-hPPARγ and p4×UASg-tk-luc were transfected into the cultured CV-1 cells. The above-noted pM-hPPARγ was a vector for expressing fusion protein containing residues 1-147 of GAL4 binding domain and residues 204-505 of human PPARγ ligand-binding domain, and the above-noted p4×UASg-tk-luc was a reporter plasmid containing four copies of an upstream activating sequence (UAS) for GAL4 binding domain and a thymidine kinase gene promoter upstream of a luciferase gene. After the transfection, the cells were cultured for about 24 hours, and then, the media for the cells were changed to media containing nobiletin at respective concentrations (0.1, 1.0, and 50 μM) or media for non-treatment control, followed by an additional 24 hour culture. The above-noted media containing nobiletin were prepared by adding nobiletin dissolved in dimethyl sulfoxide (DMSO) to the media, whereas the media for non-treatment control were prepared by adding only DMSO to the media. After the culture, the cells were lysed and the measurement of luciferase activity was performed using a Dual-Luciferase
Reporter Gene Assay system (available from Promega Corporation) (Measurement Group).
Similarly to the measurement group, as a control group, the measurement of luciferase activity was performed using pM (a vector containing residues 1-147 of GAL4 binding domain and not containing residues 204-505 of PPARγ ligand-binding domain in pM-hPPARγ) instead of the pM-hPPARγ. For each sample, the ratio between average luminescence intensities of the measurement group and the control group (n=4) (measurement group/control group) was calculated, and the luciferase activity relative to the non-treatment control was determined as the PPARγ ligand-binding activity of the sample.

[2] = tested on: adiponectin mRNA in 3T3-L1; assay: adiponectin mRNA expression in differentiating 3T3-L1 preadipocytes (Light Cycler, ratio to 36B4); assay type: cell-based; conditions: for Adiponectin mRNA expression amount (ratio to 36B4): 3T3-L1, 7 days after differentiation induction, non-treatment control = 100, average ± standard error
Description: (§1) (Differentiation Induction of Preadipocyte)
(§2) 1. Differentiation Induction Medium (0.25 μM DEX, 0.5 mM MIX, 10 μg/ml insulin/10% FBS/DMEM)
(§3) 55 ml of FBS (fetal bovine serum (available from GIBCO)) was added to 500 ml of DMEM (available from SIGMA) so as to prepare 10% FBS/DMEM. To this 10% FBS/DMEM, 138.75 μl of 1 mM DEX (dexamethasone)/DMSO (available from Nacalai Tesque, Inc.) and 555 μl of 10 mg/ml insulin/PBS (available from SIGMA) were added. Note here that the insulin/PBS was obtained by adding 1 N HCl to PBS in advance so as to make the solution acidic enough to allow insulin dissolution and then dissolving insulin. MIX (3-isobutyl-1-methylxanthine) (available from Nacalai Tesque, Inc.) was added to a necessary amount of the above-described medium immediately before use in such a manner as to achieve 0.5 mM concentration, thereby preparing a differentiation induction medium. Since MIX was very difficult to dissolve, it first was dissolved in a small amount of 99.5% ethanol and then added to 10% FBS/DMEM.
2. Differentiation Promotion Medium (5 μg/ml Insulin/10% FBS/DMEM)
A differentiation promotion medium was prepared by adding 277.5 μl of 10 mg/ml insulin/PBS to 555 ml of 10% FBS/DMEM.
Next, cultured preadipocytes 3T3-L1 were thawed, inoculated in a 100 mm dish and cultured until the 3T3-L1 cells reached about 80% confluence. A single dish of 3T3-L1 that had reached about 80% confluence was subcultured to a single 6-well plate and further cultured until the 3T3-L1 cells reached confluence in the 6-well plate, and then the medium was replaced with the differentiation induction medium, followed by differentiation induction. 48 hours later, the medium was replaced with the differentiation promotion medium, and thereafter, the medium was replaced with the differentiation promotion medium every two days. 7 days after the initiation of the differentiation induction, mRNA was extracted using a Sepasol-RNA I Super (trade name; available from Nacalai Tesque, Inc.), and the mRNA expression amounts of 36B4, aP2 and adiponectin, which were indicators of an early period of adipocyte differentiation, were measured using a Light Cycler™.
(§4) The medium was removed from the above-described Swell plate, 1 ml of Sepasol-RNA I Super (available from Nacalai Tesque, Inc.) was added to each well, and pipetting was repeated several times so as to disperse the cells. […] The resultant precipitate (total RNA) was dried and then dissolved in 20 μl of nuclease free water, and the concentration of mRNA was measured using Nanoprop (available from SCRUM Inc.).
(§5) The extracted and measured mRNA solution was adjusted to have an mRNA concentration of 1 μg/μl. […]

[3] = tested on: spontaneously diabetic mice (KK-A^y); assay: adiponectin secretion amount in serum of spontaneously diabetic mice (KK-Ay), ELISA; assay type: in vivo
Source text: The present example verified the diabetes relieving-effect of nobiletin through an experiment using spontaneously diabetic mice (KK-A^y).
First, twelve spontaneously diabetic mice (6-week old, female) were fed preliminarily with normal diet for one week. Next, the mice were divided into two groups, namely, a control group and a NOB group (n=6) such that the average weights of these two groups were the same. Then, the mice of the control group were fed with high-fat diet only, whereas the mice of the NOB group were fed with high-fat diet containing 0.02% nobiletin. 27 days or 28 days after the initiation of feeding, serum was collected from these mice. […]
Only the strips of the antibody plates necessary for the analysis were taken out. […] Thereafter, 100 μl of the standard solutions with respective concentrations and 100 μl of the diluted specimen solutions were added to the individual wells and measured in duplicate. Note here that the standard solutions always were measured for each measurement and each plate. […] After 100 μl of the substrate solution was added to each well of the antibody plate and allowed to stand still for reaction for 15 minutes at room temperature, 100 μl of the reaction stop solution was added to each well of the antibody plate, and then the absorbance at 450 nm in each well was measured with a plate reader. […]

aP2 mRNA in 3T3-L1 = assay: aP2 mRNA expression in differentiating 3T3-L1 preadipocytes (Light Cycler, ratio to 36B4); assay type: cell-based; conditions: 3T3-L1, 7 days after differentiation induction, non-treatment control = 100, average ± standard error
Description: as §1, §2, §3
2. Differentiation Promotion Medium (5 μg/ml Insulin/10% FBS/DMEM) […]
Next, cultured preadipocytes 3T3-L1 were thawed, inoculated in a 100 mm dish and cultured until the 3T3-L1 cells reached about 80% confluence. […] 7 days after the initiation of the differentiation induction, mRNA was extracted using a Sepasol-RNA I Super (trade name; available from Nacalai Tesque, Inc.), and the mRNA expression amounts of 36B4, aP2 and adiponectin, which were indicators of an early period of adipocyte differentiation, were measured using a Light Cycler™.
as §4, §5

- PPARγ ligand activity ([1]; 0.1 μM): 96.5 ± 10.8
- PPARγ ligand activity ([1]; 1.0 μM): 156.8 ± 11.3
- PPARγ ligand activity ([1]; 10 μM): 200.5 ± 55.1
- PPARγ ligand activity ([1]; 50 μM): 246 ± 41.7
Structure (SMILES): COc1ccc(-c2cc(=O)c3c(OC)c(OC)c(OC)c(OC)c3o2)cc1OC [nobiletin]
- PPARγ activity, result in words ([1]; 0.1-50 μM, versus non-treatment control): increased significantly in keeping with the concentration of nobiletin
- Adiponectin mRNA expression amount (ratio to 36B4) ([2]; 5 μM): 265.1 ± 60.4
- Adiponectin mRNA expression amount (ratio to 36B4) ([2]; 10 μM): 352.3 ± 28.5
- Adiponectin mRNA expression amount (ratio to 36B4) ([2]; 1 μm): 164.9 ± 18.7
- secretion of adiponectin in adipocytes, result in words ([2]; 3T3-L1 cultured with nobiletin versus non-treated control medium): enhance the secretion of adiponectin in the adipocytes significantly
- Adiponectin secretion amount ([3]; KK-Ay mice, high-fat diet containing 0.02% nobiletin, serum 27 or 28 days after initiation of feeding, average ± standard error, n=6, control group 4.78 ± 0.096): 7.18 ± 0.50
- adiponectin secretion amount, result in words ([3]; diabetic mice of NOB group versus control group): increase the adiponectin secretion amount in the adipocytes significantly
- aP2 mRNA expression amount (ratio to 36B4) (aP2 mRNA in 3T3-L1; 5 μM): 193.7 ± 41.4
- aP2 mRNA expression amount (ratio to 36B4) (aP2 mRNA in 3T3-L1; 10 μM): 273.1 ± 13.8
- aP2 mRNA expression amount (ratio to 36B4) (aP2 mRNA in 3T3-L1; 1 μm): 155.8 ± 21.7
